{"source": "patent US12152022B2", "about": "“N-[5-(aminosulfonyl)-4-methyl-1,3-thiazol-2-yl]-N-methyl-2-[4-(2-pyridinyl)-phenyl]-acetamide free base hemihydrate, methods of manufacture and uses thereof” (AiCuris Anti-Infective Cures GmbH, priority 2016, dated 2024)", "key": {"[1]": {"assay": "Octanol/water partition coefficient", "type": "physicochemical", "details": "25° C.", "procedure": "(§1) The physical characterization of the free base hemihydrate referred to herein was performed using compendial methods as per European Pharmacopoeia (Ph. Eur.) and/or the U.S.\n(§2) The identified forms were then further characterized by several methods: XRPD, Optical microscopy, ^1H-NMR, DSC, TGA, and DVS. The physical characterization of the free base hemihydrate referred to herein was performed using compendial methods as per European Pharmacopoeia (Ph. Eur.) and/or the U.S. Pharmacopeial Convention (USP).\n(§3) General properties of N-[5-(aminosulfonyl)-4-methyl-1,3-thiazol-2-yl]-N-methyl-2-[4-(2-pyridinyl)-phenyl]-acetamide hemihydrate Table 9: […]"}, "[2]": {"assay": "Exposure of Form C to different relative humidity values, check by XRPD", "type": "physicochemical", "details": "<5% to 100% RH, sealed vials, 5 days", "text": "(§4) The hemihydrate Form C was isolated on larger scale. The starting material for the screening (Form B) was a monohydrate. Additionally a potential dihydrate (form L) was identified. […] To extend the exposure to different relative humidity (RH) values small vials with solid/saturated solutions were loaded with an open pan of Form C on top and the sealed vials kept for 5 days (see the data below for different humidity levels)."}, "[3]": {"assay": "Saturated solubility in individual excipients", "type": "physicochemical", "details": "mean, n=3", "text": "Comparative Solubility of Free Base and Free Base Hemihydrate in Individual Excipients Saturated solubility (% w/w) of two forms of pritelivir (batches BXR2KVE for the free base and M023862-CA15-033 for pritelivir hemihydrate) in PEG 400 and propylene glycol, mean (range, n=3) are shown in Table 11 below."}, "[4]": {"assay": "Hygroscopicity / DVS water sorption", "type": "physicochemical", "details": "for DVS: release and adsorption of water: 25° C., experiment time <600 min for Form C", "text": "FIG. 6A: weight vs. relative humidity, FIG. 6B: measurement over time.\nas §4"}, "[5]": {"assay": "pKa value by photometric titration", "type": "physicochemical", "procedure": "as §1, §2, §3"}, "HSV-2": {"test_system": "HSV-2", "details": "once daily suppressive therapy; cited from earlier work"}, "herpes simplex virus": {"test_system": "herpes simplex virus", "details": "compared with N-[5-(amino-sulfonyl)-4-methyl-1,3-thiazol-2-yl]-N-methyl-2-[4-(2-pyridinyl)phenyl]acetamide; cited from earlier work"}}}
{"smiles": "Cc1nc(N(C)C(=O)Cc2ccc(-c3ccccn3)cc2)sc1S(N)(=O)=O", "note": "[pritelivir hemihydrate, N-[5-(aminosulfonyl)-4-methyl-1,3-thiazol-2-yl]-N-methyl-2-[4-(2-pyridinyl)-phenyl]-acetamide free base hemihydrate]", "values": [{"measurement": "logP", "setting": "[1]", "value": -0.0405}, {"measurement": "Solid form by XRPD after humidity exposure", "setting": "[2]", "value": "all samples confirmed to be Form C"}, {"measurement": "Saturated solubility in PEG 400", "setting": "[3]; PEG 400, hemihydrate", "value": 7.87, "unit": "% w/w"}, {"measurement": "Saturated solubility in propylene glycol", "setting": "[3]; Propylene glycol, hemihydrate", "value": 0.59, "unit": "% w/w"}, {"measurement": "Hygroscopicity", "setting": "[4]", "value": "Not hygroscopic"}, {"measurement": "DVS: release and adsorption of water", "setting": "[4]; hemihydrate", "value": "almost no change"}, {"measurement": "pKa value (photometric titration)", "setting": "[5]", "value": 4.6}]}
{"smiles": "CC(C)[C@H](N)C(=O)OCCOCn1cnc2c(=O)[nH]c(N)nc21", "note": "[valacyclovir]", "values": [{"measurement": "Risk of transmission of genital herpes", "setting": "HSV-2", "value": "significantly reduces the risk of transmission"}]}
{"smiles": "C[C@H](Cn1cnc2c(N)ncnc21)OCP(=O)(O)O", "note": "[Tenofovir]", "values": [{"measurement": "IC50-values compared to pritelivir", "setting": "herpes simplex virus", "value": "significantly higher"}]}
{"smiles": "Cc1nc(N(C)C(=O)Cc2ccc(-c3ccccn3)cc2)sc1S(N)(=O)=O", "note": "[pritelivir free base, N-[5-(aminosulfonyl)-4-methyl-1,3-thiazol-2-yl]-N-methyl-2-[4-(2-pyridinyl)-phenyl]-acetamide]", "values": [{"measurement": "Saturated solubility in PEG 400", "setting": "[3]; PEG 400", "value": 3.30, "unit": "% w/w"}, {"measurement": "Saturated solubility in PEG 400 (free base*)", "setting": "[3]; PEG 400, column marked *, asterisk not explained", "value": 7.87, "unit": "% w/w"}, {"measurement": "Saturated solubility in propylene glycol", "setting": "[3]; Propylene glycol", "value": 0.20, "unit": "% w/w"}, {"measurement": "Saturated solubility in propylene glycol (free base*)", "setting": "[3]; Propylene glycol, column marked *, asterisk not explained", "value": 2.84, "unit": "% w/w"}, {"measurement": "DVS: release and adsorption of water", "setting": "[4]; listed as Form B", "value": "release and adsorb water more rapidly than Form C"}]}
